US12391697B2, “Condensed bi-heterocycles as inhibiting agents for Bruton's tyrosine kinase” (BIOGEN MA INC., priority 2019, dated 2025)
Where a name gives a salt, the structure may show the parent alone.

These compounds were tested against BTK (Homo sapiens (Human), UniProt Q06187) (assay: In Vitro BTK Kinase Assay: Btk-PolyGAT-LS Assay). Details: active BTK enzyme 0.25 nM, ATP 10 μM, polyGAT 100 nM, 30 minutes.
Assay type: biochemical
Method: In Vitro BTK Kinase Assay: Btk-PolyGAT-LS Assay
The purpose of the BTK in vitro assay is to determine compound potency against BTK through the measurement of IC50. […] The BTK kinase reaction was done in a black 96 well plate (costar 3694). For a typical assay, a […] aliquot of a ATP/peptide master mix (final concentration; ATP 10 μM, polyGAT 100 nM) in kinase buffer (10 mM Tris-HCl pH 7.5, 10 mM MgCl2, 200 μM […], 5 mM DTT, 0.01% Triton X-100, and 0.2 mg/ml casein) is added to each well. Next, […] of a 4-fold, 40× compound titration in 100% DMSO solvent is added, followed by adding 15 uL of BTK enzyme mix in 1× kinase buffer (with a final concentration of 0.25 nM). The assay is incubated for 30 minutes before being stopped with […] of a 50 mM EDTA solution. Aliquots (5 uL) of the kinase reaction are transferred to a low volume white 384 well plate (Corning 3674), and […] of a 2× detection buffer (Invitrogen PV3574, with 4 nM Tb-PY20 antibody, Invitrogen PV3552) is added. The plate is covered and incubated for 45 minutes at room temperature. Time resolved fluorescence (TRF) on Molecular Devices M5 (332 nm excitation; 488 nm emission; 518 nm fluorescein emission) is measured.

Chain of BTK (Q06187 whole entry): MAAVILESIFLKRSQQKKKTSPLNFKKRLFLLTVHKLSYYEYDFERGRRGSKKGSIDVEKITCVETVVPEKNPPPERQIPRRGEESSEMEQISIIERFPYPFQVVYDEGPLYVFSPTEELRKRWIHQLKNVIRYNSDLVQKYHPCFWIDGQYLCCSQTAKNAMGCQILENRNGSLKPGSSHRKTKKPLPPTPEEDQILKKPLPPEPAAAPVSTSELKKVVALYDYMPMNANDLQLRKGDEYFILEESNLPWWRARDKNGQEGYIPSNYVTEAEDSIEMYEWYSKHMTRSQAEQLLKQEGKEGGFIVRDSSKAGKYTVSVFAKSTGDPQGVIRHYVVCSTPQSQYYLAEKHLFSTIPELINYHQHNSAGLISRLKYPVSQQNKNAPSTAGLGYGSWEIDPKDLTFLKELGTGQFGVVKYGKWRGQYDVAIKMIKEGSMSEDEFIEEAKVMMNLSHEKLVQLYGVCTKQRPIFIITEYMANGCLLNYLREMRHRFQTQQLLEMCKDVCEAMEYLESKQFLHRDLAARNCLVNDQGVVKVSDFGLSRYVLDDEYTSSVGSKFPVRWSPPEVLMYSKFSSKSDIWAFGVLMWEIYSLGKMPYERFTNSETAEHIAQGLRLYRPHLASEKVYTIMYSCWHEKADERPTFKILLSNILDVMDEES

Row | Structure (SMILES) | IC50 [nM]
1 | Cc1cc(-c2ncnn3cc(C4=CCSCC4)cc23)ccc1CNC(=O)c1noc(C(C)(C)C)n1 [Example 101] | ≤ 1
2 | CC(C)(C)c1nc(C(=O)NCc2ccc(-c3ncnn4cccc34)cc2Cl)no1 [Example 178] | 1 to 10
3 | CC(C)(C)n1cc(C(=O)NCc2ccc(-c3ncnn4cc(N5CCOCC5)cc34)cc2C2CC2)nn1 [Example 205] | 1 to 10
4 | Cc1cc(-c2ccnn3cnnc23)ccc1CNC(=O)c1noc(C(C)(C)C)n1 [Example 47] | > 10
5 | Cc1cc(-c2ncnn3cc(C4COC4)cc23)ccc1CNC(=O)c1noc(C(C)(C)C)n1 [Example 71, 5-(tert-butyl)-N-(2-methyl-4-(6-(oxetan-3-yl)pyrrolo[2,1-f][1,2,4]triazin-4-yl)benzyl)-1,2,4-oxadiazole-3-carboxamide trifluoroacetate] | > 10
6 | COc1c(CNC(=O)c2noc(C(C)(C)C)n2)ccc(-c2ncnn3cccc23)c1F [Example 180] | 1 to 10
7 | Cc1cc(-c2ncnn3cc(-c4cnn(C)c4)cc23)ccc1CNC(=O)c1noc(C(C)(C)CF)n1 [Example 41, 5-(1-fluoro-2-methylpropan-2-yl)-N-(2-methyl-4-(6-(1-methyl-1H-pyrazol-4-yl)pyrrolo[2,1-f][1,2,4]triazin-4-yl)benzyl)-1,2,4-oxadiazole-3-carboxamide] | ≤ 1
8 | Cc1cc(-c2ncnn3cccc23)ccc1CNC(=O)c1cnn(C(C)(C)C)c1 [Example 183] | 1 to 10
9 | Cc1c(CNC(=O)c2nc(C(C)(C)C)no2)ccc(-c2ccnc3cc(-c4cnn(C)c4)nn23)c1F [Example 83] | ≤ 1
10 | Cc1cc(-c2ncnn3cc(N4CCN5CC(F)(F)C[C@H]5C4)cc23)ccc1CNC(=O)c1nc(C(C)(C)C)no1 [Example 123] | ≤ 1
11 | CCn1cc(-c2cc3c(-c4ccc(CNC(=O)c5noc(C(C)(C)C)n5)c(C)c4)ncnn3c2)cn1 [Example 236] | ≤ 1
12 | Cc1cc(-c2ncnn3cc(-c4cn(C)nc4C)cc23)ccc1CNC(=O)c1noc(C(C)(C)C)n1 [Example 108] | ≤ 1
13 | CC(C)(C)c1nc(C(=O)NCc2ccc(-c3ncnn4cccc34)cc2C(F)F)no1 [Example 181] | 1 to 10
14 | Cc1cc(-c2ncnn3cc(C(=O)N4CCOCC4)cc23)ccc1CNC(=O)c1noc(C(C)(C)C)n1 [Example 215] | > 10
15 | Cn1cc(-c2cc3c(-c4ccc(CNC(=O)c5cn(C(C)(C)C)nn5)c(C(F)F)c4)ncnn3c2)cn1 [Example 64, 1-(tert-butyl)-N-(2-(difluoromethyl)-4-(6-(1-methyl-1H-pyrazol-4-yl)pyrrolo[2,1-f][1,2,4]triazin-4-yl)benzyl)-1H-1,2,3-triazole-4-carboxamide hydrochloride] | ≤ 1
16 | Cc1cc(-c2ncnn3cc(-c4cnn(C)c4)cc23)ccc1CNC(=O)c1ccn(C(C)(C)C)n1 [Example 168] | ≤ 1
17 | CC(C)(C)c1nnc(C(=O)NCc2ccc(-c3ncnn4cc(N5CCOCC5)cc34)cc2C(F)F)o1 [Example 193] | 1 to 10
18 | Cn1cc(-c2cc3c(-c4ccc(CNC(=O)c5nnc(C(C)(C)C)o5)c(C(F)F)c4)ncnn3c2)cn1 [Example 191] | ≤ 1
19 | Cn1cc(-c2cc3c(-c4ccc(CNC(=O)c5noc(C(C)(C)C)n5)c(CC(F)F)c4F)ncnn3c2)cn1 [Example 233] | ≤ 1

Row | Structure (SMILES) | IC50 [nM]
20 | Cc1cc(-c2ccnn3cccc23)ccc1CNC(=O)c1nc(C(C)(C)C)no1 [Example 18, 3-(tert-butyl)-N-(2-methyl-4-(pyrrolo[1,2-b]pyridazin-4-yl)benzyl)-1,2,4-oxadiazole-5-carboxamide] | 1 to 10
21 | Cc1cc(-c2ncnn3cc(Br)cc23)ccc1CNC(=O)c1noc(C(C)(C)C)n1 [Example 51] | 1 to 10
22 | Cc1cc(-c2ncnn3cc(N4CC[C@H](F)C4)cc23)ccc1CNC(=O)c1noc(C(C)(C)C)n1 (single isomer, unassigned) [Example 141] | ≤ 1
23 | CC(C)(C)n1nnc(C(=O)NCc2cc(F)c(-c3ncnn4cccc34)cc2Cl)n1 [Example 136] | > 10
24 | Cc1cc(-c2ncnn3cc(N4C[C@@H](F)[C@@H](F)C4)cc23)ccc1CNC(=O)c1noc(C(C)(C)C)n1 [Example 122] | ≤ 1
25 | CC(C)(C)n1cc(C(=O)NCc2ccc(-c3ncnn4cc(C5=CCOCC5)cc34)cc2C(F)F)cn1 [Example 208] | ≤ 1
26 | Cc1cc(-c2ccnn3cccc23)ccc1CNC(=O)c1noc(C(C)(C)C)n1 [Example 17, 5-(tert-butyl)-N-(2-methyl-4-(pyrrolo[1,2-b]pyridazin-4-yl)benzyl)-1,2,4-oxadiazole-3-carboxamide] | 1 to 10
27 | COc1c(CNC(=O)c2nc(C(C)(C)C)no2)ccc(-c2ncnn3cc(N4CCOCC4)cc23)c1F [Example 203] | ≤ 1
28 | Cc1cc(-c2ncnn3cc(N4CCOCC4)cc23)ccc1CNC(=O)c1nnn(C(C)(C)C)n1 [Example 114] | ≤ 1
29 | CC(C)(C)c1noc(C(=O)NCc2ccc(-c3ncnn4cc(N5CCOCC5)cc34)cc2C(F)(F)F)n1 [Example 186] | ≤ 1
30 | Cn1cc(-c2cc3c(-c4ccc(CNC(=O)c5cnn(C(C)(C)C)c5)c(C(F)F)c4)ncnn3c2)cn1 [Example 212] | ≤ 1
31 | CC(C)(C)c1coc(C(=O)NCc2ccc(-c3ncnn4cc(N5CCOCC5)cc34)cc2C(F)F)n1 [Example 222] | 1 to 10
32 | Cc1cc(-c2ncnn3cc(N4CCO[C@H](C)C4)cc23)ccc1CNC(=O)c1nnn(C(C)(C)C)n1 (single isomer, unassigned) [Example 139] | ≤ 1
33 | CC(C)(C)c1nc(C(=O)NCc2ccc(-c3ncnn4cc(-c5cnn(CC(F)F)c5)cc34)cc2C(F)F)co1 [Example 210] | ≤ 1
34 | Cc1cc(-c2ncnn3cc(C4CCOC4)cc23)ccc1CNC(=O)c1noc(C(C)(C)C)n1 (centres unmarked) [Example 95] | 1 to 10
35 | Cc1cc(-c2ncnn3cc(C#N)cc23)ccc1CNC(=O)c1noc(C(C)(C)C)n1 [Example 102] | 1 to 10
36 | Cc1cc(-c2ncnn3cc(N4CC[C@@H](F)C4)cc23)ccc1CNC(=O)c1noc(C(C)(C)C)n1 (single isomer, unassigned) [Example 142] | ≤ 1
37 | COc1cc(-c2ncnn3cc(-c4cnn(C)c4)cc23)ccc1CNC(=O)c1cn(C(C)(C)C)nn1 [Example 188] | 1 to 10
38 | C[C@@H](NC(=O)c1nnc(C(C)(C)C)o1)c1ccc(-c2ncnn3cc(N4CCOCC4)cc23)cc1Cl [Example 204] | 1 to 10

Row | Structure (SMILES) | IC50 [nM]
39 | Cc1cc(-c2ncnn3cc(-c4cnn(C)c4)cc23)ccc1CNC(=O)c1cnn(C(C)(C)C)c1 [Example 167] | ≤ 1
40 | CC(C)(C)c1nnc(C(=O)NCc2ccc(-c3ncnn4cc(N5CCOCC5)cc34)cc2Cl)o1 [Example 161] | 1 to 10
41 | CC(C)(C)c1nc(C(=O)NCc2ccc(-c3ncnn4cc(N5CCOCC5)cc34)cc2C(F)F)no1 [Example 220] | ≤ 1
42 | Cc1cc(-c2ncnn3cc(N4CCO[C@H](C)C4)cc23)ccc1CNC(=O)c1coc(C(C)(C)C)n1 (single isomer, unassigned) [Example 143] | ≤ 1
43 | Cc1cc(-c2ncnn3cc(N4CCOCC4)cc23)ccc1CNC(=O)c1nc(C(C)(C)C)no1 [Example 105] | ≤ 1
44 | Cc1cc(-c2ncnn3cc(N4CCn5ccnc5C4)cc23)ccc1CNC(=O)c1noc(C(C)(C)C)n1 [Example 120] | ≤ 1
45 | Cc1cc2nccc(-c3ccc(CNC(=O)c4noc(C(C)(C)C)n4)c(C)c3)n2n1 [Example 46] | > 10
46 | COc1c(CNC(=O)c2cn(C(C)(C)C)nn2)ccc(-c2ncnn3cc(-c4cnn(C)c4)cc23)c1F [Example 200] | 1 to 10
47 | Cc1cc(-c2ncnn3cccc23)ccc1CNC(=O)c1coc(C(C)(F)F)n1 [Example 20, 2-(1,1-difluoroethyl)-N-(2-methyl-4-(pyrrolo[2,1-f][1,2,4]triazin-4-yl)benzyl)oxazole-4-carboxamide trifluoroacetate] | > 10
48 | Cc1cc(-c2ncnn3cc(C4=CCOCC4)cc23)ccc1CNC(=O)c1ccn(C(C)(C)C)n1 (single isomer, unassigned) [Example 127] | ≤ 1
49 | Cc1cc(-c2ncnn3cc(C4=CCOCC4)cc23)ccc1CNC(=O)c1coc(C(C)(C)C)n1 [Example 124] | ≤ 1
50 | Cc1cc(-c2ncnn3cc(N4C[C@@H](C)O[C@H](C)C4)cc23)ccc1CNC(=O)c1noc(C(C)(C)C)n1 (single isomer, unassigned) [Example 43] | ≤ 1
51 | Cc1cc(-c2cc3c(-c4ccc(CNC(=O)c5nc(C(C)(C)C)no5)c(C)c4)ncnn3c2)cnn1 [Example 171] | ≤ 1
52 | Cc1cc(-c2ncnn3cc(N4CCOCC4)cc23)ccc1CNC(=O)c1ccn(C(C)(C)C)n1 [Example 175] | 1 to 10
53 | CC(C)(C)n1cc(C(=O)NCc2ccc(-c3ncnn4cc(N5CCOCC5)cc34)cc2Cl)nn1 [Example 162] | 1 to 10
54 | CC(C)(C)c1nc(C(=O)NCc2ccc(-c3ncnn4cc(N5CCOCC5)cc34)cc2C(F)F)co1 [Example 198] | ≤ 1
55 | Cc1cc(-c2ncnn3cc(-c4cncnc4)cc23)ccc1CNC(=O)c1noc(C(C)(C)C)n1 [Example 226] | ≤ 1
56 | Cc1c(CNC(=O)c2nc(C(C)(C)C)no2)ccc(-c2ncnn3cc(N4CCN(C)[C@H](C)C4)cc23)c1F (single isomer, unassigned) [Example 25] | ≤ 1
